Holding throughout (assay): NCI tumour cell line growth inhibition, 48 h
The test system of assay [1] is T-47D breast.
In assay [2] the test system is EKVX NSCLC.
Assay [3] has as its system NCI-H23 lung.
The test system of assay [4] is HL-60(TB) leukemia.
The test system of assay [5] is HT29 colon.
Assay [6] has as its system TK-10 renal.
The subject of assay [7] is ACHN renal.
The test system of assay [8] is A549 NSCLC.
Assay [9] has as its system M14 melanoma.
The test system of assay [10] is A498 renal.

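The compound was tested at five concentrations on cells cultured in 96-well plates, with a 48-hour exposure period. Definition used: TGI = concentration required for complete inhibition of growth.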 Some results are limits rather than exact numbers.

`CCn1c2c(c3c(C(=O)OC)c(O)ccc31)C(=O)c1ccccc1C2=O`: the TGI was 33 µM in [1]; 59.7 µM in assay [2]; 48.7 µM in assay [3]; 57.3 µM in assay [4]; 36.5 µM in assay [5]; above 100 µM in assay [6]. For the same compound, the TGI in assay [7] stood at 21.9 µM; in [8], 38.9 µM; in assay [9], 28.3 µM.
In the case of `O=c1[nH]cnc2c1ncn2[C@H]1CO[C@@H](CO)[C@@H]1O`, the TGI in [10], in assay [1], in assay [2], in [3], in assay [5] and in assay [6] was above 100 µM in each case. The same compound gave a TGI in assay [7] above 100 µM.
On to `CC(NC(=O)c1ccc(OP(=O)(OCC2=CC(=O)c3ccccc3C2=O)N(C)CCCCCl)cc1)c1ccc(OCC2CCCCC2)c(C(N)=O)c1` (centres undefined), for which the TGI was 10.5 µM in assay [1]; 10.2 µM in assay [3]; 41.1 µM in assay [4]; 31.2 µM in assay [5]; 61.7 µM in [6]; 29.2 µM in [7]. Further, the values for the TGI in assay [8] and in [9] were 5.6 µM and 13 µM, respectively.
As for `COc1cccc(-c2cc(=O)c3cc(C)cnc3[nH]2)c1`, the TGI in assay [10] was above 100 µM; in assay [1], above 100 µM; in [2], above 100 µM; in assay [3], above 100 µM; in assay [4], 0.617 µM; in [5], 0.191 µM. Also, the figures for the TGI in [6], in assay [7] and in [9] were above 100 µM, above 100 µM and above 69.6 µM, respectively.
For `CC1=C(C#N)S(=O)(=O)c2c(oc(C)c2C)N1`, the TGI in assay [10], in assay [1], in assay [2], in assay [3], in [5] and in assay [6] was above 100 µM in each case. Besides, the TGI in assay [7], in [8] and in [9] was above 100 µM throughout.
For `COc1cc(C(C#N)NNC(=O)c2ccccc2O)ccc1O` (centres undefined), the TGI in assay [3] is 10.4 µM; in [4] it was 19.4 µM; in assay [5], above 100 µM; in [6] it was above 100 µM; in assay [7], above 100 µM; in assay [8] it was above 100 µM. In addition, the TGI in assay [9] is above 100 µM.
Regarding `CC(=O)C(=C(I)I)c1ccccc1`, the TGI in assay [10] turned out to be 40.7 µM; in assay [1], 50.4 µM; in assay [2], 49.3 µM; in assay [3], 36.2 µM; in [4] it was 48.2 µM; in assay [5] it was 35.2 µM. The TGI in [7] came to 35.2 µM; in assay [8] it was 56.2 µM; in [9], 31.6 µM.
Consider `CCCCNC(=S)Nc1nc(C(=O)NNS(=O)(=O)c2ccccc2)cs1`, for which the TGI was above 100 µM in assay [10]; above 100 µM in assay [1]; above 100 µM in assay [2]; above 100 µM in assay [3]; 99.9 µM in [6]; 85.5 µM in [7]. Moreover, the TGI in assay [8] and in assay [9] was above 100 µM throughout.
Consider `CCOC(=O)/C=C(/C(=O)OCC)n1cc(C)c(=O)n(Cc2cnnn2CCCCOC(C)=O)c1=O`, for which the TGI in assay [1] worked out at 71.1 µM; in assay [2], 49.3 µM; in [3], 90.8 µM; in [5], 34.3 µM; in [6], 26.7 µM; in assay [7] it was 23.9 µM. Besides, in assay [8], the TGI is above 100 µM.
For `COc1ccc(CNc2nc3ccccc3nc2-c2cccs2)cc1`, the TGI in assay [10], in [1], in assay [2], in assay [3], in assay [4] and in [5] was above 100 µM each time. For the same compound, the TGI in assay [6], in assay [7] and in assay [8] was above 100 µM each time.
For `Cc1cc2ccccc2c[n+]1CC(=O)CC([O-])(C(F)(F)F)C(F)(F)F`, the TGI in assay [10], in [1], in [2], in [3], in assay [4] and in [5] was above 100 µM throughout. In addition, the TGI in [7], in assay [8] and in [9] was above 100 µM throughout.
Consider `Cc1nc2c(Br)cc(Br)cc2c(=O)n1-c1ccccc1N`, for which the TGI in assay [10] is above 100 µM; in assay [2] it was above 100 µM; in [4] it was 66.5 µM; in assay [5] it was 65.4 µM; in assay [7], above 100 µM; in [8], above 100 µM. The compound further displayed a TGI in assay [9] above 100 µM.
`CCN(CC)C(=O)CCCCCCCCC1CO1` (centres undefined): the TGI in assay [10], in [2], in [3], in [4], in assay [5] and in assay [6] was above 100 µM each time. In addition, the TGI in assay [7], in [8] and in assay [9] was above 100 µM throughout.
As to `O=C(CSC1=NCCN1)c1ccccc1`, the TGI in [10], in [1], in assay [2], in assay [3], in assay [5] and in assay [6] was above 100 µM each time. Also, the TGI in assay [7], in assay [8] and in [9] was above 100 µM throughout.
On to `O=C1CSC2(CCN(CCCN3c4ccccc4Sc4ccc(Cl)cc43)CC2)N1`, for which the TGI worked out at 31 µM in assay [10]; 15.6 µM in assay [1]; 22.7 µM in [2]; 24.1 µM in assay [3]; 11.9 µM in [5]; 21.2 µM in assay [6]. Further, the TGI was 23.7 µM in [7], 23.4 µM in [8] and 20.6 µM in assay [9].
Turning to `Clc1ccc(-c2nc(-c3ccc(Cl)cc3)[s+]s2)cc1`, the TGI in assay [10] was above 100 µM; in [1], above 100 µM; in [2], above 100 µM; in assay [3] it was above 100 µM; in assay [5] it was above 100 µM; in [6], 86.5 µM. For the same compound, the TGI in assay [7], in [8] and in assay [9] was above 100 µM throughout.

Values taken from PubChem BioAssay (NCI).
